Experimental data reported in patent US7189745B1, “Compounds” (SmithKline Beecham Corporation, priority 1999, dated 2007).

Legend:
[1] = target: T1, Tie2 kinase (Homo sapiens, UniProt Q02763); test: Tie2 kinase autophosphorylation flashplate assay; format: biochemical; conditions: ATP final 30 uM
T1 construct: a baculovirus expressed GST fusion for Tie2 kinase domain was constructed and expressed using the commercial vector pAcG I (Pharmingen); GST; made in house
Excerpt: A partial cDNA clone for the Tie2 receptor was used to make protein for Tie kinase studies. In order to generate the primary screening assay, a baculovirus expressed GST fusion for Tie2 kinase domain was constructed and expressed using the commercial vector pAcG I (Pharmingen).
This final construct was transfected into Baculovirus and soluble GST fusion products used in the screening assay.
Tie2 kinase activity assay: The Tie2 kinase activity assay was typically run in one of 2 ways described as follows. Minor variations in the assay give similar results.
1. Autophosphorylation flashplate assay
Kinase buffer (final 20 mM Tris-HCl, pH7.0, 100 mM NaCl, 12 mM MgCl2, 1 mM DTT).
Gamma ^33p-ATP (usually final amount of 0.5–1 uCi/well)
ATP (final 30 uM, or other desired concentration)
Flashplate (96-well, polystyrene microplate with plastic scintillator coated wells)
TopCount (microplate scintillation counter)
Turn on incubator shaker and adjust temperature to 30° C.
Add 20 ul of 3× kinase buffer per well to the Flashplate
Add 20 ul of protein per well except for background. Compounds added, typically in DMSO stocks, at 1–2 ul.
Add 20 ul mixture of gamma ^33p-ATP and cold ATP per well.
Cover with transparent polyester film.
Incubate at 30° C. for two hours in shaker, or desired time. […]
Read plate on TopCount or other counting instrument. Results are calculated as % inhibition […]

[2] = target: T2, activated tie 2 kinase (Homo sapiens, UniProt Q02763); test: Fluorescence polarization for Tie 2 kinase; format: biochemical; conditions: fluorescence polarization assay, 250 uM ATP, 10 uM peptide substrate
T2 construct: a baculovirus expressed GST fusion for Tie2 kinase domain was constructed and expressed using the commercial vector pAcG I (Pharmingen); GST; made in house
T2 sequence (Q02763 824-1096 limits assumed): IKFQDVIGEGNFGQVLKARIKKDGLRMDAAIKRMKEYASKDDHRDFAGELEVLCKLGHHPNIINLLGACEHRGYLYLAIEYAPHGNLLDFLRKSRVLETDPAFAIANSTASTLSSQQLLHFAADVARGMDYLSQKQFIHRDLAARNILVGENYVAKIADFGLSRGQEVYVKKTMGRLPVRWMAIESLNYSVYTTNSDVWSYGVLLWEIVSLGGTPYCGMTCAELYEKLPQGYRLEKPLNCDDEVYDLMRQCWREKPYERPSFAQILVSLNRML
Method: 2. Fluorescence Polarization for Tie 2 Kinase
2% DMSO (when screening compounds)
activated tie 2 kinase * see activation protocol below
For a 50 ul reaction add the following to each well of a 96-well black half-area plate (Costar, cat# 3694) • 1.5 ul of compound in 20% DMSO • 5 ul 9× kinase buffer. • 5 ul 2.5 mM ATP. • 5 ul 100 uM peptide substrate. • 25 ul PTK detection mix (Panvera, P-2652, 50 ml—UK distributor is Cambridge Bioscience) • 5 ul activated tie 2 kinase (protocol below) diluted in 1× buffer to initiate the reaction. • 7. Read polarization on an FP instrument cycling for 30–50 minutes in accordance with enzyme activity.
Activation of Tie 2 Kinase Protocol:
• 1. Incubate 5 uM tie 2 kinase in the 300 uM ATP and the buffering conditions described above. • 2. Allow to incubate at 27° C. for 2 hours. • 3. Add 2.5 ml reaction to a NAP-25 desalting column (Pharmacia Biotech cat. no. 17-0852-02) pre-equilibrated in 20 mM Tris-HCl pH 7.5, 100 mM NaCl2 to separate the ATP from the enzyme. • 4. Elute the enzyme with 5.0 ml 20 mM Tris-HCl pH 7.5, 100 mM NaCl2; the protein concentration should be 2.5 uM at this point. • 5. Aliquot out the enzyme and store at −80° C. as soon as possible. B. Measurement of Tie2 Receptor Signal Transduction—a Cellular Assay

[3] = system: angiogenesis (vascular density) in air pouch granuloma; test: Murine air pouch granuloma model of inflammatory angiogenesis; format: in vivo, mice; conditions: positive control
Excerpt: Measurement of Angiogenesis In Vivo—Murine Air Pouch Granuloma Model:
The murine airpouch granuloma model of chronic inflammation (Kimura et al., 1985, J. Pharmacobio-Dyn., 8:393–400; Colville-Nash et al., 1995, J. Pharm. and Exp. Ther., 274:1463–1472) whose disclosure is incorporated herein by reference in its entirety, is characterized by inflammatory cell influx, fibrous tissue proliferation and intense angiogenesis. […] In addition, angiogenesis can be accurately quantitated by a vascular casting method.
Day 1, mice are anesthetized using Aerrane (isoflurane) gas (5%) or other approved methods, after which 3 mls of air is injected into the dorsal subcutaneous tissue using a 27 g needle. Mice are allowed to recover. […]
When the granuloma is removed it is weighed and then dried for 3 days at 45° C. and reweighed. […] The carmine content is then determined against a carmine red standard curve (0.5 to 2 mg/ml) generated in extracted tissue from non carmine treated animals and read at 490 nm. Sample and standard values are determined typically using DeltaSoft Elisa analysis software (Biometallics Inc., Princeton, N.J.). […]
The effect of compounds on vascular density was typically measured for 6 days after induction of the granuloma. This time point has been determined to be at or near the peak of angiogenesis. […] Medroxyprogesterone had no effect on granuloma size as measured by dry weight.

T1 sequence (Q02763 824-1096 limits assumed): as above

IC50 [1] | IC50 [2] | Compound | maximum reduction (vascular density) ([3]; measured 6 days after induction of the granuloma) | effect on granuloma size as measured by dry weight ([3]; murine air pouch granuloma)
< 1 µM | < 1 µM | COc1ccc2cc(-c3nc(C(C)(C)CNC(=O)OC(C)(C)C)[nH]c3-c3ccncc3)ccc2c1 [Example 1, (2-(4-(6-methoxynapthalen-2-yl)-5-pyridin-4-yl-1H-imidazol-2-yl)-2-methyl-propyl)-carbamic acid tert-butyl ester] |  | 
 |  | medroxyprogesterone | 50% | no effect
